Among the test systems are A498; A549; CAKI-1; HT-29; MDA-MB-231; MOLT-4; Malme-3M; NCI/ADR-RES; RPMI-8226; SF-295; SK-MEL-2; SN12C; T47D; EKVX; HL-60; LOX IMVI; NCI-H226; UACC-257; BT-549.
Common to all, as to experiment: growth of human tumour cells (NCI), 48 h

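How tested: cells in 96-well plates exposed to compound for 48 hours at five concentrations. Here, GI50 denotes the concentration required for 50% inhibition of growth.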 Calls of active or inactive are those of the source. Cut-off read from the data, not from the text of the source: active = GI50 up to about 1.1 µM and inactive = higher.

As for `CCCCCCCCCCCCOCC(COP(=O)(O)OCCN=[N+]=[N-])OC(=O)CCCCCCCCCCC` (configuration not stated), the GI50 in the assay with A498, in the assay with A549, with CAKI-1, with HT-29, with MDA-MB-231 and with MOLT-4 was > 100 µM (inactive) in each case. Also, the GI50 in the assay on Malme-3M, in the assay on NCI/ADR-RES, in the assay with RPMI-8226, in the assay on SF-295, in the assay on SK-MEL-2 and in the assay with SN12C was > 100 µM (inactive) in each case. The GI50 in the assay on T47D was > 100 µM (inactive).

Regarding `O=C(c1ccccc1)N1C(=O)N(c2ccccc2)C(=N/c2ccccc2)/C1=N\c1ccccc1`, the GI50 in the assay with A498 is > 100 µM (inactive); in the assay on A549 it was 42.2 µM (inactive); in the assay with CAKI-1, 48.1 µM (inactive); in the assay with EKVX, > 100 µM (inactive); in the assay on HL-60 it was > 100 µM (inactive); with HT-29, 33.7 µM (inactive). Moreover, the GI50 in the assay with LOX IMVI was 9.25 µM (inactive); with MDA-MB-231, > 100 µM (inactive); in the assay with MOLT-4 it was 19.5 µM (inactive); in the assay with Malme-3M it was 69 µM (inactive); in the assay on NCI-H226, 18 µM (inactive); in the assay with NCI/ADR-RES, > 100 µM (inactive). For the same compound, the GI50 with RPMI-8226 is > 100 µM (inactive); with SF-295, > 100 µM (inactive); in the assay with SK-MEL-2 it was 29.9 µM (inactive); with SN12C, > 100 µM (inactive); in the assay on T47D, > 100 µM (inactive); in the assay on UACC-257, 37.8 µM (inactive).

`OCC1OC(c2ccccc2)CC1O` (configuration not stated): the GI50 with A498, with A549, in the assay on CAKI-1, in the assay with EKVX, in the assay with HL-60 and with HT-29 was > 100 µM (inactive) in each case. Further, the GI50 in the assay with LOX IMVI, with MDA-MB-231, in the assay with MOLT-4, with NCI-H226, with NCI/ADR-RES and in the assay with SF-295 was > 100 µM (inactive) throughout. Besides, the GI50 with SK-MEL-2, in the assay with SN12C and in the assay on UACC-257 was > 100 µM (inactive) throughout.

`CN(CCCCCl)P(=O)(OCc1ccc([N+](=O)[O-])o1)OCC1OC(n2ccc(N)nc2=O)C(O)C1O` (configuration not stated): the GI50 with A549 was 0.303 µM (active); with CAKI-1, 55 µM (inactive); with HL-60, 4.15 µM (inactive); in the assay on HT-29, 4.61 µM (inactive); in the assay with LOX IMVI, 7.24 µM (inactive); in the assay on MDA-MB-231 it was 18.9 µM (inactive). Also, the GI50 in the assay with MOLT-4 was 0.305 µM (active); in the assay with Malme-3M, 1.16 µM (inactive); in the assay with NCI-H226, 11.4 µM (inactive); in the assay on NCI/ADR-RES it was 4.47 µM (inactive); in the assay with RPMI-8226, 1.57 µM (inactive); in the assay on SF-295, 13.9 µM (inactive). The GI50 is 9.79 µM (inactive) in the assay with SK-MEL-2, 3.52 µM (inactive) in the assay on SN12C, 1.26 µM (inactive) in the assay on T47D and 2.21 µM (inactive) with UACC-257.

As to `O=C1CN(c2ccccc2)C(=O)CN1CCN1CC(=O)N(c2ccccc2)CC1=O`, the GI50 in the assay with A498, with A549, in the assay on BT-549, with CAKI-1, in the assay on EKVX and in the assay on HL-60 was > 100 µM (inactive) in each case. Also, the GI50 in the assay with HT-29 is > 100 µM (inactive); with MOLT-4 it was > 10 µM (inactive); in the assay with Malme-3M it was > 100 µM (inactive); with RPMI-8226 it was > 100 µM (inactive); in the assay with SF-295 it was > 100 µM (inactive); with SN12C, > 100 µM (inactive). For the same compound, the GI50 in the assay on UACC-257 is > 100 µM (inactive).

Consider `C1=CC2=CC=CC3c4nc5ccc6ccccc6c5nc4C(=C1)C23` (configuration not stated), for which the GI50 with A549, in the assay on CAKI-1, with EKVX, in the assay on HL-60, in the assay on HT-29 and in the assay on LOX IMVI was > 100 µM (inactive) each time. Besides, the GI50 with MDA-MB-231, in the assay with MOLT-4, in the assay on Malme-3M, in the assay on NCI-H226, in the assay on NCI/ADR-RES and in the assay on RPMI-8226 was > 100 µM (inactive) in each case. Besides, the GI50 in the assay on SF-295, with SK-MEL-2, in the assay on SN12C, in the assay on T47D and with UACC-257 was > 100 µM (inactive) each time.

Consider `O=C(O)[C@@H]1CCS(=O)(=O)N1`, for which the GI50 with A498, in the assay on A549, in the assay with CAKI-1, in the assay with EKVX, in the assay with HL-60 and in the assay with HT-29 was > 100 µM (inactive) in each case. The GI50 with LOX IMVI, in the assay on MDA-MB-231, in the assay on MOLT-4, with Malme-3M, with NCI/ADR-RES and in the assay with SF-295 was > 100 µM (inactive) in each case. For the same compound, the GI50 with SK-MEL-2, in the assay on SN12C, in the assay on T47D and in the assay with UACC-257 was > 100 µM (inactive) each time.

`COc1cc(O)c2c(c1)OCC1(Cc3cc(OC)c(OC)cc31)C2=O` (configuration not stated): the GI50 in the assay on A498 is > 100 µM (inactive); with A549, 19.5 µM (inactive); with CAKI-1, 52 µM (inactive); in the assay with HL-60 it was > 100 µM (inactive); with HT-29, > 100 µM (inactive); in the assay with LOX IMVI, 89.3 µM (inactive). The GI50 with MDA-MB-231 is 83 µM (inactive); with MOLT-4, 47.3 µM (inactive); with Malme-3M, 87.7 µM (inactive); with NCI-H226, 46 µM (inactive); with NCI/ADR-RES, 88.9 µM (inactive); with RPMI-8226 it was 37.9 µM (inactive). Also, the GI50 in the assay on SF-295 was 30.5 µM (inactive); with SK-MEL-2, > 100 µM (inactive); with SN12C, > 100 µM (inactive); in the assay with T47D, 11.9 µM (inactive); with UACC-257, 43.1 µM (inactive).

Regarding `COc1ccc(NC(=O)CSc2nc(C)nc3c2sc(=S)n3-c2ccccc2)cc1`, the GI50 in the assay with A498 was 5 µM (inactive); in the assay on A549 it was > 10 µM (inactive); with CAKI-1, 7.46 µM (inactive); in the assay with EKVX, 7.67 µM (inactive); with HL-60, > 10 µM (inactive); in the assay on HT-29, > 10 µM (inactive). The GI50 with LOX IMVI is > 10 µM (inactive); with MDA-MB-231, > 10 µM (inactive); in the assay on MOLT-4, > 10 µM (inactive); in the assay on Malme-3M it was > 10 µM (inactive); in the assay on NCI-H226 it was 6.85 µM (inactive); in the assay with NCI/ADR-RES, 8.51 µM (inactive). Further, the GI50 in the assay with RPMI-8226 is > 10 µM (inactive); in the assay with SF-295, 7.26 µM (inactive); with SN12C, > 10 µM (inactive); with T47D, > 10 µM (inactive); in the assay with UACC-257, > 10 µM (inactive).
